Reference: patent publication US20240132450A1, “MODULATORS OF G PROTEIN-COUPLED RECEPTOR 88” (ACADIA Pharmaceuticals Inc., priority 2020, published 2024)

Target: hGPR88 receptor (Homo sapiens, UniProt Q9GZN0)
Test: hGPR88-HEK cAMP accumulation assay
Conditions: GRP88 agonist activity (EC50), HEK-293 cells expressing human recombinant GPR88, forskolin 200 nM, High/Medium/Low bands

hGPR88 receptor, sequence (Q9GZN0 whole entry): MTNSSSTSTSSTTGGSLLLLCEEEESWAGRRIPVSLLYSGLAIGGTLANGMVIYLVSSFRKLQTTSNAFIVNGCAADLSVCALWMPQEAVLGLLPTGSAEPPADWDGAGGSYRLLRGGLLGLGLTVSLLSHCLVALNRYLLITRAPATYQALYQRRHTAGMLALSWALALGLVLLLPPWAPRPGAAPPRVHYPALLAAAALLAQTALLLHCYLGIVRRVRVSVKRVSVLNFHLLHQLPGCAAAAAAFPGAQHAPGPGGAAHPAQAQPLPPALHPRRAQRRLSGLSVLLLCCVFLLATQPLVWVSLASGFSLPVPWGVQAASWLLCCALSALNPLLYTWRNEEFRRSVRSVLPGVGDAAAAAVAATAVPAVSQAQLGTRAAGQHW

EC50	SMILES
< 1 µM	CCc1ccc(OC(C)(C)C(=O)Nc2ccc(-c3ccc(COC)cc3)cc2)cc1 [Example 57, 2-(4-ethylphenoxy)-N-(4′-(methoxymethyl)-[1,1′-biphenyl]-4-yl)-2-methylpropanamide]
< 1 µM	COCc1ccc(-c2ccc(NC(=O)C(C)(C)Oc3cccc(C)c3)cc2)cc1 [Example 58, N-(4′-(methoxymethyl)-[1,1′-biphenyl]-4-yl)-2-methyl-2-(m-tolyloxy)propenamide]
< 1 µM	COCc1ccc(-c2ccc(NC(=O)C(C)(C)Oc3ccc(Br)cc3)cc2)cc1 [Example 59, 2-(4-bromophenoxy)-N-(4′-(methoxymethyl)-[1,1′-biphenyl]-4-yl)-2-methylpropanamide]
< 1 µM	COCc1ccc(-c2ccc(NC(=O)C(C)(C)Oc3ccc(C(C)C)cc3)cc2)cc1 [Example 60, 2-(4-isopropylphenoxy)-N-(4′-(methoxymethyl)-[1,1′-biphenyl]-4-yl)-2-methylpropanamide]
< 1 µM	COCc1ccc(-c2ccc(NC(=O)C(C)(C)Oc3cccc(F)c3)cc2)cc1 [Example 62, 2-(3-fluorophenoxy)-N-(4′-(methoxymethyl)-[1,1′-biphenyl]-4-yl)-2-methylpropanamide]
< 1 µM	COCc1ccc(-c2ccc(NC(=O)C(C)(C)Oc3ccc(F)cc3F)cc2)cc1 [Example 63, 2-(2,4-difluorophenoxy)-N-(4′-(methoxymethyl)-[1,1′-biphenyl]-4-yl)-2-methylpropanamide]
< 1 µM	COCc1ccc(-c2ccc(NC(=O)C(C)(C)Oc3ccccc3C)cc2)cc1 [Example 64, N-(4′-(methoxymethyl)-[1,1′-biphenyl]-4-yl)-2-methyl-2-(o-tolylox)propenamide]
< 1 µM	COCc1ccc(-c2ccc(NC(=O)C(C)(C)Oc3cccc(Cl)c3)cc2)cc1 [Example 65, 2-(3-chlorophenoxy)-N-(4′-(methoxymethyl)-[1,1′-biphenyl]-4-yl)-2-methylpropanamide]
< 1 µM	COCc1ccc(-c2ccc(NC(=O)C(C)(C)Oc3ccc(OC)cc3)cc2)cc1 [Example 66, N-(4′-(methoxymethyl)-[1,1′-biphenyl]-4-yl)-2-(4-methoxyphenoxy)-2-methylpropanamide]
< 1 µM	COCc1ccc(-c2ccc(NC(=O)C(C)(C)Oc3ccccc3Cl)cc2)cc1 [Example 67, 2-(2-chlorophenoxy)-N-(4′-(methoxymethyl)-[1,1′-biphenyl]-4-yl)-2-methylpropanamide]
> 5 µM	COCc1ccc(-c2ccc(NC(=O)C(C)(C)Oc3cccnn3)cc2)cc1 [Example 69, N-(4′-(methoxymethyl)-[1,1′-biphenyl]-4-yl)-2-methyl-2-(pyridazin-3-yloxy)propenamide]
> 5 µM	COCc1ccc(-c2ccc(NC(=O)C(C)(C)Oc3ccc(C(F)(F)F)cn3)cc2)cc1 [Example 71, N-(4′-(methoxymethyl)-[1,1′-biphenyl]-4-yl)-2-methyl-2-((5-(trifluoromethyl)pyridin-2-yl)oxy)propenamide]
1 to 5 µM	CN1CCN(Cc2ccc(-c3ccc(NC(=O)C(C)(C)Oc4ccc(F)cc4)cc3)cc2)CC1 [Example 72, 2-(4-fluorophenoxy)-2-methyl-N-(4′-((4-methylpiperazin-1-yl)methyl)-[1,1′-biphenyl]-4-yl)propanamide]
1 to 5 µM	CN(C)Cc1ccc(-c2ccc(NC(=O)C(C)(C)Oc3ccc(F)cc3)nc2)cc1 [Example 80, N-(5-(4-((dimethylamino)methyl)phenyl)pyridin-2-yl)-2-(4-fluorophenoxy)-2-methylpropanamide]
< 1 µM	CC(C)(Oc1ccc(F)cc1)C(=O)Nc1ccc(-c2ccc(CN3CCOCC3)cc2)cn1 [Example 81, 2-(4-fluorophenoxy)-2-methyl-N-(5-(4-(morpholinomethyl)phenyl)pyridin-2-yl)propanamide]
> 5 µM	CCCc1ccc(-c2ccc(NC(=O)C(C)(C)Oc3ccc(F)cc3)cc2)cc1 [Example 84, 2-(4-fluorophenoxy)-2-methyl-N-(4′-propyl-[1,1′-biphenyl]-4-yl)propanamide]
< 1 µM	CCOCc1ccc(-c2ccc(NC(=O)C(C)(C)Oc3ccc(F)cc3)cc2)cc1 [Example 86, N-(4′-(ethoxymethyl)-[1,1′-biphenyl]-4-yl)-2-(4-fluorophenoxy)-2-methylpropanamide]
1 to 5 µM	CC(C)(Oc1ccc(F)cc1)C(=O)Nc1ccc(-c2ccc3c(c2)OCO3)cc1 [Example 88, N-(4-(benzo[d][1,3]dioxol-5-yl)phenyl)-2-(4-fluorophenoxy)-2-methylpropanamide]
1 to 5 µM	CCCc1ccc(-c2ccc(NC(=O)C(C)(C)Oc3ccc(F)cc3)cc2)cn1 [Example 91, 2-(4-fluorophenoxy)-2-methyl-N-(4-(6-propylpyridin-3-yl)phenyl)propanamide]
> 5 µM	COCc1ccc(-c2ccc(NC(=O)C(C)(C)Oc3ccc(F)cc3)cc2)cc1F [Example 93, N-(3′-fluoro-4′-(methoxymethyl)-[1,1′-biphenyl]-4-yl)-2-(4-fluorophenoxy)-2-methylpropanamide]

EC50	SMILES
1 to 5 µM	CCOc1ccc(-c2ccc(NC(=O)C(C)(C)Oc3ccc(OC)cc3)cc2)cn1 [Example 94, N-(4-(6-ethoxypyridin-3-yl)phenyl)-2-(4-methoxyphenoxy)-2-methylpropanamide]
1 to 5 µM	COc1ccc(OC(C)(C)C(=O)Nc2ccc(-c3cnc(N(C)C)nc3)cc2)cc1 [Example 95, N-(4-(2-(dimethylamino)pyrimidin-5-yl)phenyl)-2-(4-methoxyphenoxy)-2-methylpropanamide]
> 5 µM	COCc1ccc(-c2ccc(NC(=O)C(C)(C)Oc3ccc(Cl)cc3Cl)cc2)cc1 [Example 96, 2-(2,4-dichlorophenoxy)-N-(4′-(methoxymethyl)-[1,1′-biphenyl]-4-yl)-2-methylpropanamide]
1 to 5 µM	COCc1ccc(-c2ccc(NC(=O)C(C)(C)Oc3ccc(Cl)c(C)c3)cc2)cc1 [Example 97, 2-(4-chloro-3-methylphenoxy)-N-(4′-(methoxymethyl)-[1,1′-biphenyl]-4-yl)-2-methylpropanamide]
1 to 5 µM	COCc1ccc(-c2ccc(NC(=O)C(C)(C)Oc3cccc(OC)c3)cc2)cc1 [Example 98, N-(4′-(methoxymethyl)-[1,1′-biphenyl]-4-yl)-2-(3-methoxyphenoxy)-2-methylpropanamide]
1 to 5 µM	COCc1ccc(-c2ccc(NC(=O)C(C)(C)Oc3c(F)cccc3F)cc2)cc1 [Example 99, 2-(2,6-difluorophenoxy)-N-(4′-(methoxymethyl)-[1,1′-biphenyl]-4-yl)-2-methylpropanamide]
1 to 5 µM	COCc1ccc(-c2ccc(NC(=O)C(C)(C)Oc3cccc(C(F)(F)F)c3)cc2)cc1 [Example 100, N-(4′-(methoxymethyl)-[1,1′-biphenyl]-4-yl)-2-methyl-2-(3-(trifluoromethyl)phenoxy)propanamide]
1 to 5 µM	COCc1ccc(-c2ccc(NC(=O)C(C)(C)Oc3ccccc3OC)cc2)cc1 [Example 101, N-(4′-(methoxymethyl)-[1,1′-biphenyl]-4-yl)-2-(2-methoxyphenoxy)-2-methylpropanamide]
1 to 5 µM	COCc1ccc(-c2ccc(NC(=O)C(C)(C)Oc3ccc(C(N)=O)cc3)cc2)cc1 [Example 102, 4-((1-((4′-(methoxymethyl)-[1,1′-biphenyl]-4-yl)amino)-2-methyl-1-oxopropan-2-yl)oxy)benzamide]
1 to 5 µM	COCc1ccc(-c2ccc(NC(=O)C(C)(C)Oc3ccccc3F)cc2)cc1 [Example 103, 2-(2-fluorophenoxy)-N-(4′-(methoxymethyl)-[1,1′-biphenyl]-4-yl)-2-methylpropanamide]
1 to 5 µM	COCc1ccc(-c2ccc(NC(=O)C(C)(C)Oc3ccc(C(F)(F)F)cc3)cc2)cc1 [Example 104, N-(4′-(methoxymethyl)-[1,1′-biphenyl]-4-yl)-2-methyl-2-(4-(trifluoromethyl)phenoxy)propanamide]
1 to 5 µM	O=C(c1ccc(-c2ccc(NC(=O)C3(Oc4ccc(F)cc4)CC3)cc2)cc1)N1CCOCC1 [Example 105, 1-(4-fluorophenoxy)-N-(4′-(morpholine-4-carbonyl)-[1,1′-biphenyl]-4-yl)cyclopropane-1-carboxamide]
1 to 5 µM	CCOc1ccc(-c2ccc(NC(=O)C3(Oc4ccc(F)cc4)CC3)cc2)cn1 [Example 106, N-(4-(6-ethoxypyridin-3-yl)phenyl)-1-(4-fluorophenoxy)cyclopropane-1-carboxamide]
1 to 5 µM	CN(C)c1ncc(-c2ccc(NC(=O)C3(Oc4ccc(F)cc4)CC3)cc2)cn1 [Example 107, N-(4-(2-(dimethylamino)pyrimidin-5-yl)phenyl)-1-(4-fluorophenoxy)cyclopropane-1-carboxamide]
1 to 5 µM	CN(C(=O)C(C)(C)Oc1ccc(F)cc1)c1ccc(-c2ccc(CO)cc2F)cc1 [Example 108]
1 to 5 µM	COc1ccc(OC(C)(C)C(=O)Nc2ccc(-c3ccc(CN4CCOCC4)cc3)cc2)cc1 [Example 113]
1 to 5 µM	COCc1ccc(-c2ccc(NC(=O)C(C)(C)Oc3ccc(F)cc3)cc2)c(F)c1 [Example 114, N-(2′-fluoro-4′-(methoxymethyl)-[1,1′-biphenyl]-4-yl)-2-(4-fluorophenoxy)-2-methylpropanamide]
< 1 µM	COCc1ccc(-c2ccc(N(C)C(=O)C(C)(C)Oc3ccc(F)cc3)cc2)c(F)c1 [Example 115, N-(2′-fluoro-4-(methoxymethyl)-[1,1′-biphenyl]-4-yl)-2-(4-fluorophenoxy)-N,2-dimethylpropanamide]
1 to 5 µM	CCOc1ccc(-c2ccc(NC(=O)C(C)(C)Oc3ccc(C#N)cc3)cc2)cn1 [Example 116, 2-(4-cyanophenoxy)-N-(4-(6-ethoxypyridin-3-yl)phenyl)-2-methylpropanamide]
1 to 5 µM	CN(C)c1ncc(-c2ccc(NC(=O)C(C)(C)Oc3ccc(C#N)cc3)cc2)cn1 [Example 117, 2-(4-cyanophenoxy)-N-(4-(2-(dimethylamino)pyrimidin-5-yl)phenyl)-2-methylpropanamide]

SMILES	EC50
CC(C)(C)OCc1ccc(-c2ccc(NC(=O)C(C)(C)Oc3ccc(F)cc3)cc2)cc1 [Example 89, N-(4′-(tert-butoxymethyl)-[1,1′-biphenyl]-4-yl)-2-(4-fluorophenoxy)-2-methylpropanamide]	< 1 µM
